Measurements published in US20200323888A1, “INHIBITORS” (VESTLANDETS INNOVASJONSSELSKAP AS, priority 2017, published 2020).
Square brackets hold non-standard residues; d marks the D form. Primed or numbered codes have the meaning given here. Ends that are not written are not given here. Nle = CCCC[C@H](N)C(=O)O; Ac′ = acetamide linker; CoA = coenzyme A

Experiments:
Naa10 = biological target: T1, Naa10 (Homo sapiens, UniProt P41227); assay: Nt-acetylation inhibitor assay (DTNB), Naa10; type: biochemical; conditions: selectivity, panel of human NATs
T1 sequence (P41227 1-235): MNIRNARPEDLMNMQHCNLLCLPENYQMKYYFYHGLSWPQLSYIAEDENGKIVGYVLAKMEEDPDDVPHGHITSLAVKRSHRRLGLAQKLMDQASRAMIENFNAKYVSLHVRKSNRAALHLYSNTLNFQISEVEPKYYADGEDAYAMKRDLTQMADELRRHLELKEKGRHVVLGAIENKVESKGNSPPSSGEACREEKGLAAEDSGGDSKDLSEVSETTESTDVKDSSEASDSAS
Description: The IC50 values for these compounds were tested as described in Foyn H, et al. (2013) “Design, Synthesis, and Kinetic Characterization of Protein N-Terminal Acetyltransferase Inhibitors”. ACS Chem Biol 8:1121-1127; and Foyn H, et al. (2017) “DTNB-Based quantification of in vitro enzymatic N-terminal acetyltransferase activity”, Methods Mol. Biol. 1574:9-15. Briefly, a colorimetric acetylation assay, 5,5′-dithiobis-(2-nitrobenzoic acid) (DTNB) assay was used to measure the catalytic activity of NATs after incubation with NAT inhibitors. […] Therefore, NTB- was quantified by measuring the absorbance at 412 nm and indirectly measures peptide Nt-acetylation. […] In order to measure CoA production, 2 mM DTNB (dissolved in 100 mM sodium phosphate dibasic pH 6.8 and 10 mM EDTA) was added to the quenched reaction and the absorbance at 412 nm was measured with a spectrophotometer (Epoc). Background absorbance (determined in negative controls) was subtracted from the absorbance determined in each individual reaction. Thiophenolate production was quantified assuming ε=13.7×103 M−1 cm−1. […] A similar Nt-acetylation reaction was performed as previously described and the enzymatic activity was quenched with a final concentration of 1% TFA and analyzed by HPLC (Evjenth R, Van Damme P, Gevaert K, Arnesen T (2013) HPLC-based Quantification of in vitro N-terminal Acetylation. Methods Mol Biol 981:95-102.). […]

Naa80 = biological target: T2, Naa80 (Homo sapiens, UniProt Q93015); assay: Nt-acetylation inhibitor assay for Naa80; type: biochemical; conditions: for IC50: Naa80
T2 construct: The PCR product containing the CDS was inserted into the TOPO TA vector; made in house; host or cells: E. coli BL21 Star (DE3)
T2 sequence (Q93015 1-308 isoform Q93015-2): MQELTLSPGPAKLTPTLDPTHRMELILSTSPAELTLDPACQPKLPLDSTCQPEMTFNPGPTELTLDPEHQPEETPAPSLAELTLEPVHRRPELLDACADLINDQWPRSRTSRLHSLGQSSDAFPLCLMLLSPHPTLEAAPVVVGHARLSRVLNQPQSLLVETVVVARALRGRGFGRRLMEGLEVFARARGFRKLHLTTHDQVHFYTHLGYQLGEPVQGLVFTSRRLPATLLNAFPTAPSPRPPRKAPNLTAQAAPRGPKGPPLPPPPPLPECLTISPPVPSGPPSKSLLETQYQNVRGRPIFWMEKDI
Description: FIG. 10: (A) IC50 values for inhibitors measured in an Nt-acetylation inhibitor assay for Naa80. (B) Ki-values for CoA-Ac-DDDI-NH2 (SEQ ID NO: 6) for different human NATs measured in an Nt-acetylation inhibitor assay. All reactions were performed at least three times and in triplicate; errors bars represent standard deviation of each measurement.
The IC50 values for these compounds were tested as described in Foyn H, et al. (2013) “Design, Synthesis, and Kinetic Characterization of Protein N-Terminal Acetyltransferase Inhibitors”. ACS Chem Biol 8:1121-1127; and Foyn H, et al. (2017) “DTNB-Based quantification of in vitro enzymatic N-terminal acetyltransferase activity”, Methods Mol. Biol. 1574:9-15. Briefly, a colorimetric acetylation assay, 5,5′-dithiobis-(2-nitrobenzoic acid) (DTNB) assay was used to measure the catalytic activity of NATs after incubation with NAT inhibitors. In the DTNB assay, thiols present in the enzymatic product, CoA, cleaves DTNB and produces 2-nitro-5-thiobenzoate (NTB-), which absorbs light with a wavelength of 412 nm. NTB- forms in a 1:1 molar ratio to the thiol groups present in the sample. Therefore, NTB- was quantified by measuring the absorbance at 412 nm and indirectly measures peptide Nt-acetylation. […] After 30 min-60 min incubation at 37° C., the enzyme activity was quenched with quenching buffer (3.2 M guanidinium-HCl, 100 mM sodium phosphate dibasic pH 6.8). Triplicates were run for all positive samples, while negative controls were duplicated. As a negative control, reactions without enzyme were incubated at 37° C. before the reaction was quenched and added enzyme. In order to measure CoA production, 2 mM DTNB (dissolved in 100 mM sodium phosphate dibasic pH 6.8 and 10 mM EDTA) was added to the quenched reaction and the absorbance at 412 nm was measured with a spectrophotometer (Epoc). Background absorbance (determined in negative controls) was subtracted from the absorbance determined in each individual reaction. Thiophenolate production was quantified assuming ε=13.7×103 M−1 cm−1. For NatA and NatB enzyme complex inhibition, immunoprecipitation was performed using Naa15 ab (custom made, Arnesen T, Anderson D, Baldersheim C, Lanotte M, Varhaug J E, Lillehaug J R. (2005) Identification and characterization of the human ARD1-NATH protein acetyltransferase complex. Biochemical J 386(Pt 3):433-43.) or Naa20 ab (Nat5, abnova) respectively and protein A/G magnetic agarose beads (Millipore). A similar Nt-acetylation reaction was performed as previously described and the enzymatic activity was quenched with a final concentration of 1% TFA and analyzed by HPLC (Evjenth R, Van Damme P, Gevaert K, Arnesen T (2013) HPLC-based Quantification of in vitro N-terminal Acetylation. Methods Mol Biol 981:95-102.).
We then pursued Naa80 bisubstrate analogue inhibitors based on the results of the substrate screening and the sequences of the cellular substrates processed β- and γ-actin. We synthesized bisubstrate conjugates of Coenzyme A coupled to the tetrapeptides MDEL-NH2 (SEQ ID NO: 8), DDDI-NH2 (SEQ ID NO: 6), EEEI-NH2 (SEQ
ID NO: 7), and MLGT-NH2 (SEQ ID NO: 52) via an acetamide (Ac) linker.
The following additional Naa80 bisubstrate analogue inhibitors were produced and tested as described above: […]

NatA = biological target: T3, NatA (Homo sapiens, UniProt P41227); assay: Nt-acetylation inhibitor assay, immunoprecipitated NatA complex, HPLC quantification; type: biochemical; conditions: inhibitors tested against NatA; all compounds with C-terminal amide
T3 construct: endogenous in cells
T3 sequence (P41227 1-235): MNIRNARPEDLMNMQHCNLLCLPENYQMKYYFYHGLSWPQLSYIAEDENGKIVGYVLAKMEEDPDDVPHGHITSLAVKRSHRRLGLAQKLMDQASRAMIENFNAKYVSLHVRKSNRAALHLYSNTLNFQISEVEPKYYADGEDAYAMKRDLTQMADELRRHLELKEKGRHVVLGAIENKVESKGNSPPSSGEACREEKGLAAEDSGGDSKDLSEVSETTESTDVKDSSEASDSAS
T3 sequence (Q9BXJ9 1-866 partner): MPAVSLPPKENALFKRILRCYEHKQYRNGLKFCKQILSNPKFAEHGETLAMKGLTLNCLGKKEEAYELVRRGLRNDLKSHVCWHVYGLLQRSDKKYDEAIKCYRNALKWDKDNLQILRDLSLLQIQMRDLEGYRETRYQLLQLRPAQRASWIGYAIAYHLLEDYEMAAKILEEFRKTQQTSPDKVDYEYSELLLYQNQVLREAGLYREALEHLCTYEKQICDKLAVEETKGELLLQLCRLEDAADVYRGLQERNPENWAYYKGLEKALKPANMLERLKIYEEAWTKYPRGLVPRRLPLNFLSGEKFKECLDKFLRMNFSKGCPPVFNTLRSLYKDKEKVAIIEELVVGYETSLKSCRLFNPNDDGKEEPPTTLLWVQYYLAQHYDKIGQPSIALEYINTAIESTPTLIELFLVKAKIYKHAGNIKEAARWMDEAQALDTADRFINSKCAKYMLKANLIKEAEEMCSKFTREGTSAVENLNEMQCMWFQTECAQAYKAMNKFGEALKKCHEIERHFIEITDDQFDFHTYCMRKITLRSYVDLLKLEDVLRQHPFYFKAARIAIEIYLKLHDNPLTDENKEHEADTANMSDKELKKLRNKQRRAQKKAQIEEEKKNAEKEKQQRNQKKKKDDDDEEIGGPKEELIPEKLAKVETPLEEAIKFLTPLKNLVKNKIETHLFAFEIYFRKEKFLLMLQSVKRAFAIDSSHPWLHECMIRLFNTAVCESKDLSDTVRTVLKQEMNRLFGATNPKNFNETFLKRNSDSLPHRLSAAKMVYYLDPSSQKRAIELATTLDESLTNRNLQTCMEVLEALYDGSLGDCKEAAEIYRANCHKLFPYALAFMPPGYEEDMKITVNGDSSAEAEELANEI
Description: The IC50 values for these compounds were tested as described in Foyn H, et al. (2013) “Design, Synthesis, and Kinetic Characterization of Protein N-Terminal Acetyltransferase Inhibitors”. ACS Chem Biol 8:1121-1127; and Foyn H, et al. (2017) “DTNB-Based quantification of in vitro enzymatic N-terminal acetyltransferase activity”, Methods Mol. Biol. 1574:9-15. Briefly, a colorimetric acetylation assay, 5,5′-dithiobis-(2-nitrobenzoic acid) (DTNB) assay was used to measure the catalytic activity of NATs after incubation with NAT inhibitors. In the DTNB assay, thiols present in the enzymatic product, CoA, cleaves DTNB and produces 2-nitro-5-thiobenzoate (NTB-), which absorbs light with a wavelength of 412 nm. NTB- forms in a 1:1 molar ratio to the thiol groups present in the sample. Therefore, NTB- was quantified by measuring the absorbance at 412 nm and indirectly measures peptide Nt-acetylation. Recombinant purified NAT enzyme was mixed with different substrate peptides (300 uM, custom-made) and Ac-CoA (300 uM) in acetylation buffer (50 mM Tris/HEPES pH 8.5-7.4, 100 mM NaCl, 10% glycerol and 0.2 mM EDTA) and with inhibitor concentration (0-500 uM). After 30 min-60 min incubation at 37° C., the enzyme activity was quenched with quenching buffer (3.2 M guanidinium-HCl, 100 mM sodium phosphate dibasic pH 6.8). Triplicates were run for all positive samples, while negative controls were duplicated. As a negative control, reactions without enzyme were incubated at 37° C. before the reaction was quenched and added enzyme. In order to measure CoA production, 2 mM DTNB (dissolved in 100 mM sodium phosphate dibasic pH 6.8 and 10 mM EDTA) was added to the quenched reaction and the absorbance at 412 nm was measured with a spectrophotometer (Epoc). Background absorbance (determined in negative controls) was subtracted from the absorbance determined in each individual reaction. Thiophenolate production was quantified assuming ε=13.7×103 M−1 cm−1. […] A similar Nt-acetylation reaction was performed as previously described and the enzymatic activity was quenched with a final concentration of 1% TFA and analyzed by HPLC (Evjenth R, Van Damme P, Gevaert K, Arnesen T (2013) HPLC-based Quantification of in vitro N-terminal Acetylation. Methods Mol Biol 981:95-102.).
In order to ensure selectivity towards NatA, the CoA-Ac-SSNIeP (SEQ ID NO: 4) was tested against other NATs. Using the Cheng-Prusoff equation for competitive inhibitors, the dissociation constant, Ki, was calculated from IC50 values and [S]/Km ratios for all the NATs.

zebrafish embryos = assay: Phenotype after injection into zebrafish embryos; type: in vivo; conditions: injected into zebrafish embryos; compared with reference inhibitor
Text: A norleucine (Nle) residue was therefore tried in place of methionine in order to try to circumvent the synthesis problem.

DDDI24 = biological target: T4, DDDI24
T4 chain: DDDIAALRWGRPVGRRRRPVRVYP

MDDD24 = biological target: T5, MDDD24
T5 chain: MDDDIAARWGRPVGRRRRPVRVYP

MDEL24 = biological target: T6, MDEL24
T6 chain: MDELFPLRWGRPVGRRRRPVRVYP

CC[C@H](C)[C@H](NC(=O)[C@H](CC(=O)O)NC(=O)[C@H](CC(=O)O)NC(=O)[C@H](CC(=O)O)NC(=O)CSCCNC(=O)CCNC(=O)C(O)C(C)(C)COP(=O)(O)OP(=O)(O)OCC1OC(n2cnc3c(N)ncnc32)C(O)C1OP(=O)(O)O)C(N)=O (some centres unmarked) [CoA-Ac-DDDI-NH2]
reduced potency for Naa10 compared to Naa80 (Naa10): 88 fold
IC50 (Naa80): 0.38 µM
more potent Naa80 inhibitor than CoA-Ac-EEEI-NH2 (Naa80; ratio of IC50 values): 3 fold
more potent Naa80 inhibitor than CoA-Ac-MDEL-NH2 (Naa80; ratio of IC50 values): 3.3 fold

CCCC[C@H](NC(=O)[C@H](CO)NC(=O)[C@@H]1CCCN1C(=O)CSCCNC(=O)CCNC(=O)C(O)C(C)(C)COP(=O)(O)OP(=O)(O)OCC1OC(n2cnc3c(N)ncnc32)C(O)C1OP(=O)(O)O)C(=O)N1CCC[C@H]1C(N)=O (some centres unmarked) [CoA-Ac-PS(Nle)P]
IC50 (NatA): > 1000 µM

CC(C)C[C@H](NC(=O)[C@H](CCC(=O)O)NC(=O)[C@H](CCC(=O)O)NC(=O)[C@H](CCC(=O)O)NC(=O)CSCCNC(=O)CCNC(=O)C(O)C(C)(C)COP(=O)(O)OP(=O)(O)OCC1OC(n2cnc3c(N)ncnc32)C(O)C1OP(=O)(O)O)C(N)=O (some centres unmarked) [EEEL]
IC50 (Naa80): 1.16 µM

CoA-Ac-MLGT-NH2 ({CoA-Ac′}-MLGT-NH2)
inhibition of Naa80 (Naa80; at the highest concentration tested of 1000 μM): did not show detectable inhibition

CoA-Ac-SSNlePK-folic acid: CoA-Ac-SS(Nle)PK (SEQ ID NO: 23) carrying folic acid as targeting moiety ({CoA-Ac}-SS[Nle]PK; not fully specified (C-terminus); also: folic acid conjugate as targeting moiety, site not given here)
phenotype in zebrafish (zebrafish embryos): comparable phenotypes as CoA-Ac-SSNleP-NH2

B1: MBP-HishNAA80 fusion protein (MBP-Naa80) (protein)
chain: MQELTLSPGPAKLTPTLDPTHRMELILSTSPAELTLDPACQPKLPLDSTCQPEMTFNPGPTELTLDPEHQPEETPAPSLAELTLEPVHRRPELLDACADLINDQWPRSRTSRLHSLGQSSDAFPLCLMLLSPHPTLEAAPVVVGHARLSRVLNQPQSLLVETVVVARALRGRGFGRRLMEGLEVFARARGFRKLHLTTHDQVHFYTHLGYQLGEPVQGLVFTSRRLPATLLNAFPTAPSPRPPRKAPNLTAQAAPRGPKGPPLPPPPPLPECLTISPPVPSGPPSKSLLETQYQNVRGRPIFWMEKDI
substrate ranking by product formation (DDDI24): its cellular substrate, processed β-actin, DDDI24 (SEQ ID NO: 41) ranked third
substrate ranking by product formation (MDDD24): the second best substrate, MDDD24
product formation, fold higher compared to the second best substrate MDDD24 (MDEL24): a 5-fold higher product formation compared to the second best substrate, MDDD24
